In the supplement of paper PMC10627819:

Assays:
Assay in all cases: fitness (endpoint OD595 vs no drug) (fraction); higher = more growth
B. subtilis 168 = tested on: B. subtilis 168
Method in brief: (§1)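 Bacterial growth was followed in 384-well plates seeded at OD595 0.01, with 30 µl per well, or 55 µl for S. pneumoniae, in TSB, LB Lennox or CY at 37 °C. OD595 was read every 30 min for 14 h, and each reading had the first reading subtracted as background. Fitness is the background-corrected optical density at entry into stationary phase divided by the robust mean of the no-drug control wells. This ratio is capped at 1.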

S. aureus DSM 20231 = tested on: S. aureus DSM 20231
Method in brief: as §1

S. pneumoniae D39V = tested on: S. pneumoniae D39V
Method in brief: as §1

CN(C)[C@@H]1C(O)=C(C(N)=O)C(=O)[C@@]2(O)C(O)=C3C(=O)c4c(O)ccc(Cl)c4[C@@](C)(O)[C@H]3C[C@@H]12 [Chlortetracycline] + CN(N=O)C(=O)N[C@@H](C=O)[C@@H](O)[C@H](O)[C@H](O)CO [Streptozotocin]
fitness
Settings | partner 0.15 µg/mL | partner 0.3 µg/mL | partner 0.6 µg/mL | partner 1.2 µg/mL | partner 2.4 µg/mL | partner 4.8 µg/mL
B. subtilis 168, first compound 0.0475 µg/mL | 0.901 | 0.934 | 0.956 | – | – | –
B. subtilis 168, first compound 0.095 µg/mL | 0.786 | 0.762 | 0.784 | – | – | –
B. subtilis 168, first compound 0.19 µg/mL | 0.533 | 0.547 | 0.556 | – | – | –
S. aureus DSM 20231, first compound 0.012 µg/mL | 0.503 | 0.532 | 0.507 | – | – | –
S. aureus DSM 20231, first compound 0.024 µg/mL | 0.227 | 0.232 | 0.189 | – | – | –
S. aureus DSM 20231, first compound 0.048 µg/mL | 0.0717 | 0.13 | 0.059 | – | – | –
S. pneumoniae D39V, first compound 0.375 µg/mL | – | – | – | 0.0355 | 0.0337 | 0.0486
S. pneumoniae D39V, first compound 0.75 µg/mL | – | – | – | 0.0646 | 0.0497 | 0.0485
S. pneumoniae D39V, first compound 1.5 µg/mL | – | – | – | 0.0765 | 0.0322 | 0.0617

fitness, one replicate
Settings | partner 0.15 µg/mL | partner 0.3 µg/mL | partner 0.6 µg/mL | partner 1.2 µg/mL | partner 2.4 µg/mL | partner 4.8 µg/mL
S. aureus DSM 20231, first compound 0.006 µg/mL | 0.699 | 0.621 | 0.622 | – | – | –
S. pneumoniae D39V, first compound 0.012 µg/mL | – | – | – | 0.889 | 0.893 | 0.796
S. pneumoniae D39V, first compound 0.024 µg/mL | – | – | – | 0.858 | 0.798 | 0.659
S. pneumoniae D39V, first compound 0.048 µg/mL | – | – | – | 0.737 | 0.8 | 0.577

CN(C)[C@@H]1C(O)=C(C(N)=O)C(=O)[C@@]2(O)C(O)=C3C(=O)c4c(O)ccc(Cl)c4[C@@](C)(O)[C@H]3C[C@@H]12 [Chlortetracycline] + CN[C@@H]1[C@H](O)[C@H](NC)[C@H]2O[C@@]3(O)C(=O)C[C@@H](C)O[C@H]3O[C@@H]2[C@H]1O [Spectinomycin]
fitness
Settings | partner 2 µg/mL | partner 4 µg/mL | partner 8 µg/mL | partner 16 µg/mL
B. subtilis 168, first compound 0.0475 µg/mL | 0.885 | 0.884 | 0.752 | –
B. subtilis 168, first compound 0.095 µg/mL | 0.803 | 0.806 | 0.691 | –
B. subtilis 168, first compound 0.19 µg/mL | 0.523 | 0.409 | 0.199 | –
S. aureus DSM 20231, first compound 0.012 µg/mL | – | 0.529 | – | 0.494
S. aureus DSM 20231, first compound 0.024 µg/mL | – | 0.203 | – | –
S. aureus DSM 20231, first compound 0.048 µg/mL | – | 0.137 | 0.0943 | 0.05
S. pneumoniae D39V, first compound 0.375 µg/mL | – | 0.0802 | 0.0586 | 0.0693
S. pneumoniae D39V, first compound 0.75 µg/mL | – | 0.0886 | 0.0941 | 0.0722
S. pneumoniae D39V, first compound 1.5 µg/mL | – | 0.0871 | 0.0754 | 0.0779

fitness, one replicate
Settings | first compound 0.006 µg/mL | first compound 0.012 µg/mL | first compound 0.024 µg/mL | first compound 0.048 µg/mL
S. aureus DSM 20231, partner 4 µg/mL | 0.669 | – | – | –
S. aureus DSM 20231, partner 8 µg/mL | 0.707 | – | – | –
S. aureus DSM 20231, partner 16 µg/mL | 0.655 | – | – | –
S. aureus DSM 20231, partner 32 µg/mL | – | 0.298 | 0.058 | 0.0249
S. aureus DSM 20231, partner 64 µg/mL | – | 0.0229 | 0.0093 | 0.0056
S. pneumoniae D39V, partner 4 µg/mL | – | 0.901 | 0.859 | 0.795
S. pneumoniae D39V, partner 8 µg/mL | – | 0.853 | 0.859 | 0.78
